Test results reported in US5604095A, “Unsymmetrically linked bisnaphthalimides as antitumor agents” (Cancer Therapy & Research Center, priority 1994, dated 1997).
Where two headings read alike, the source gives them in different places.

How the values were obtained:
[1] = cited from earlier work
[2] = system: B16 melanoma; details: Chen et al., 1993; cited from earlier work
[3] = system: DLD-2 human colon adenocarcinoma; details: literature; cited from earlier work
[4] = system: MX-1 human breast carcinoma; details: literature; cited from earlier work
[5] = system: LX-1 lung carcinoma; details: literature; cited from earlier work
[6] = system: solid tumor xenografts, human and murine leukemia, doxorubicin resistant cell lines, colon carcinoma cells; details: cited from earlier work
[7] = system: B16 melanoma; test: In vivo tumor inhibiting activity vs. B16 melanoma in B6D2F1 mice; details: q.d. × 5, i.p., day 7
Experimental: B16 Melanoma: B6D2F1 mice received i.p. inocula of B16 murine melanoma brei prepared from B16 tumors growing subcutaneously in mice (day 0). On day 1, rumored mice were treated with drugs or vehicle control; the route of drug administration and schedule were selected as appropriate for the study in question. If dosing information for agents was not available, the maximum tolerated dose (MTD) was determined in initial dose finding experiments in non-rumored mice. In a typical experiment, drugs were given at their MTD and 1/2 MTD doses i.p. on a daily×5 schedule.
The mean survival times of all groups were calculated, and results were expressed as mean survival of treated mice/mean survival of control mice (T/C)×100%. A T/C value of 150 means that the mice in the treated group lived 50% longer than those of the control group; this is sometimes referred to as the increase in life space, or ILS value.
Mice that survived for 60 days were considered long term survivors, or cures, in the B16 model. The universally accepted cut-off for activity in this model, which has been used for years by the National Cancer Institute, is T/C=125. Conventional use of B16 over the years has set the following levels of activity: T/C<125, no activity; T/C=125-150, weak activity; T/C=150-200, modest activity; T/C=200-300, high activity; T/C>300, with long term survivors, excellent, curative activity (Goldin et al., 1981).
Statistics were performed on the data using primarily the log rank p-value test.

Row | Structure (SMILES) | water solubility ([1]; Sun et al., 1993) | activity against B16 melanoma [2] | in vivo anti-tumor activity against DLD-2 [3] | in vivo anti-tumor activity against MX-1 [4] | water solubility ([1]; reported) | anti-tumor efficacy in vivo against LX-1 lung carcinoma [5] | toxicity ([6]; literature) | anti-tumor efficacy in vivo ([6]; solid tumor xenografts, leukemia, doxorubicin resistant lines, colon carcinoma) | Wt. Ch. (Day 7) ([7]; 5 mg/kg) | Wt. Ch. (Day 7) ([7]; 10 mg/kg)
1 | CS(=O)(=O)O.O=C1c2cccc3cc([N+](=O)[O-])cc(c23)C(=O)N1CCCCNCCCN1C(=O)c2cccc3cc([N+](=O)[O-])cc(c23)C1=O [XB596] | 45 µg/mL | ineffective against B16 melanoma | demonstrated in vivo anti-tumor activity | demonstrated in vivo anti-tumor activity | – | – | – | – | – | –
2 | C[C@H](CNCCNC[C@@H](C)N1C(=O)c2cccc3cc([N+](=O)[O-])cc(c23)C1=O)N1C(=O)c2cccc3cc([N+](=O)[O-])cc(c23)C1=O [DMP840, (R,R)-2,2'[1,2-ethanediylbis[imino(1-methyl-2,1-ethanediyl)]]-bis[5-nitro-1H-benz[de]isoquinoline-1,3-(2H)-dione] dimethanesulfonate] | – | – | anti-tumor efficacy in vivo | anti-tumor efficacy in vivo | 3400 µg/mL | anti-tumor efficacy in vivo | no irreversible toxicities | anti-tumor efficacy in vivo | +4.6% | -0.33%
